Assays:
[1] = system: human SMAD7 mRNA; experiment: Dose-dependent inhibition of human SMAD7 mRNA expression in Hep3B cells, comparison with ION 28453 (Example 4); format: cell-based; conditions: electroporation, approximately 16 hours
Procedure: Cells were plated at a density of 20,000 cells per well and transfected using electroporation with 0.25 μM, 0.74 μM, 2.22 μM, 6.67 μM, or 20.00 μM concentrations of antisense oligonucleotide, as specified in the Tables below. After a treatment period of approximately 16 hours, RNA was isolated from the cells and SMAD7 mRNA levels were measured by quantitative real-time PCR. Primer probe set RTS5062 was used to measure human SMAD7 mRNA levels. SMAD7 mRNA levels were adjusted according to total RNA content, as measured by RIBOGREEN®. Results are presented as percent inhibition of SMAD7 mRNa expression, relative to untreated control cells.
The half maximal inhibitory concentration (IC50) of each oligonucleotide is also presented. […] Several newly designed antisense oligonucleotides had greater potency than the previously disclosed lead compound, ION 28453.

[2] = system: mouse Smad7 mRNA; experiment: Murine Smad7 mRNA expression after oral administration in BALB/c mice (Example 11); format: in vivo; conditions: 500 mg/kg/day oral for 3 weeks, 24 hours after last dose
Procedure: The objective of this study was to evaluate the efficacy of Ionis SMAD7 antisense oligonucleotides in BALB/c mice following daily oral administration. The Ionis oligonucleotides are cross-reactive with mouse Smad7 mRNA.
Groups of BALB/c mice were orally administered 500 mg/kg/day for 3 weeks of human Smad7 oligonucleotides, ION 790615, ION 798781, or ION 830025, or mouse Smad7 oligonucleotide, ION 772797 (a 3-10-3 cEt gapmer with phosphorothioate backbone and sequence […]; designated herein as SEQ ID NO: 2743). One group of mice was orally administered PBS daily for 3 weeks. Each group contained 4 mice.
To evaluate the efficacy of the oligonucleotides, murine Smad7 mRNA expression in the liver, kidneys, duodenum, ileum, and colon was measured using primer probe set RTS1114.

Row | Substance | % inhibition of SMAD7 mRNA expression ([1]; 0.25 μM) [%] | % inhibition of SMAD7 mRNA expression ([1]; 0.74 μM) [%] | % inhibition of SMAD7 mRNA expression ([1]; 2.22 μM) [%] | % inhibition of SMAD7 mRNA expression ([1]; 6.67 μM) [%] | % inhibition of SMAD7 mRNA expression ([1]; 20.00 μM) [%] | IC50 ([1]; SMAD7 mRNA) [µM] | Mouse Smad7 mRNA expression (% inhibition), Colon [2] [% inhibition] | Mouse Smad7 mRNA expression (% inhibition), Duodenum [2] [% inhibition] | Mouse Smad7 mRNA expression (% inhibition), Ileum [2] [% inhibition] | Mouse Smad7 mRNA expression (% inhibition), Kidney [2] [% inhibition] | Mouse Smad7 mRNA expression (% inhibition), Liver [2] [% inhibition]
1 | 798781 (CGTAAGATTCACAGCA; 3-10-3 cEt gapmer, further chemistry not given here) [compound 798781] | 12 | 38 | 66 | 66 | 87 | 2 | 0 | 47 | 0 | 12 | 0
2 | 830025 (antisense TTTGTAAATCGAAAGC; 3-10-3 cEt gapmer, further chemistry not given here) [compound 830025] |  |  |  |  |  |  | 39 | 51 | 0 | 31 | 25
3 | 790615 (CCAATGAGAATGCTTC; 3-10-3 cEt gapmer, further chemistry not given here) [compound 790615] |  |  |  |  |  |  | 72 | 54 | 0 | 41 | 52

Reference: patent publication US10517889B2, “Modulators of SMAD7 expression” (Ionis Pharmaceuticals, Inc., priority 2017, dated 2019)
